Results published in patent US20260297060A1, “COMPOUNDS FOR THE DEGRADATION OF MUTANT BRAF” (C4 THERAPEUTICS, INC., priority 2023, published 2026).
Where two headings read alike, the source gives them in different places.

Legend:
BRAF V600E = target: T1, BRAF V600E (Homo sapiens, UniProt P15056+Q96SW2, V600E); assay: BRAF V600E HiBiT Degradation Assay; format: cell-based; conditions: A375.10 cells, BRAF V600E
T1 construct: knock-in of the HiBiT tag to the endogenous BRAF V600E locus; host or cells: A375.10 (A375 clonal line, CRISPR HiBiT knock-in at the endogenous BRAF V600E locus)
T1 sequence (P15056 whole entry V600E): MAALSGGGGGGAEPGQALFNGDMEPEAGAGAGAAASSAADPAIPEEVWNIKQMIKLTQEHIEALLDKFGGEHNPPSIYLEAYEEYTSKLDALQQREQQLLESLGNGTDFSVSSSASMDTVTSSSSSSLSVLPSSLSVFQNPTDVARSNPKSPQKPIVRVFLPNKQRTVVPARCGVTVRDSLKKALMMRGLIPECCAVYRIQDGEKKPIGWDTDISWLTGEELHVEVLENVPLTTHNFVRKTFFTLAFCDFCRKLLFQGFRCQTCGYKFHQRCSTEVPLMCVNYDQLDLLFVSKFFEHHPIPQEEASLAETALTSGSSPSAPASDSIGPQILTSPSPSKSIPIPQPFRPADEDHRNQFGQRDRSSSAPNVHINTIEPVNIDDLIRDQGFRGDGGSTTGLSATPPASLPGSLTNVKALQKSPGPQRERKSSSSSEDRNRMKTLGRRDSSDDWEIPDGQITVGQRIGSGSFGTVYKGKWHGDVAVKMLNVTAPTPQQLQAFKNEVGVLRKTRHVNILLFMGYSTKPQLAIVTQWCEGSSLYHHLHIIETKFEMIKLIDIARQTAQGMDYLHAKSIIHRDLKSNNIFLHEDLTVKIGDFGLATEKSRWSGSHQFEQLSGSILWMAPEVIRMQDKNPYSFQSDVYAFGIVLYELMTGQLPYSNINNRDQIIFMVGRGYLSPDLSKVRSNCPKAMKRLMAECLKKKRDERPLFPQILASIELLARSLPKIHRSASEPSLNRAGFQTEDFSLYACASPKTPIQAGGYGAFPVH
T1 sequence (Q96SW2 whole entry): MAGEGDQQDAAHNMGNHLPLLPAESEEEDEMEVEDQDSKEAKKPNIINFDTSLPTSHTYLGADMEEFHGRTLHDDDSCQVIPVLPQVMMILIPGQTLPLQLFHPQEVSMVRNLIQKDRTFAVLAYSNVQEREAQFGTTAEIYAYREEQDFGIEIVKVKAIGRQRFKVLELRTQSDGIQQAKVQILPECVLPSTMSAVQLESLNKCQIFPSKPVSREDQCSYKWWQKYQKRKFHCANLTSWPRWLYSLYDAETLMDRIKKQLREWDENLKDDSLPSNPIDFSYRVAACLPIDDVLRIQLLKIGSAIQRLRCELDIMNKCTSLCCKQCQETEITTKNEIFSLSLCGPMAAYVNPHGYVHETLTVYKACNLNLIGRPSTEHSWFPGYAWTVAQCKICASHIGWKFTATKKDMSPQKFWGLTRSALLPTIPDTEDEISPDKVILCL
T1 sequence (Q16531 whole entry partner): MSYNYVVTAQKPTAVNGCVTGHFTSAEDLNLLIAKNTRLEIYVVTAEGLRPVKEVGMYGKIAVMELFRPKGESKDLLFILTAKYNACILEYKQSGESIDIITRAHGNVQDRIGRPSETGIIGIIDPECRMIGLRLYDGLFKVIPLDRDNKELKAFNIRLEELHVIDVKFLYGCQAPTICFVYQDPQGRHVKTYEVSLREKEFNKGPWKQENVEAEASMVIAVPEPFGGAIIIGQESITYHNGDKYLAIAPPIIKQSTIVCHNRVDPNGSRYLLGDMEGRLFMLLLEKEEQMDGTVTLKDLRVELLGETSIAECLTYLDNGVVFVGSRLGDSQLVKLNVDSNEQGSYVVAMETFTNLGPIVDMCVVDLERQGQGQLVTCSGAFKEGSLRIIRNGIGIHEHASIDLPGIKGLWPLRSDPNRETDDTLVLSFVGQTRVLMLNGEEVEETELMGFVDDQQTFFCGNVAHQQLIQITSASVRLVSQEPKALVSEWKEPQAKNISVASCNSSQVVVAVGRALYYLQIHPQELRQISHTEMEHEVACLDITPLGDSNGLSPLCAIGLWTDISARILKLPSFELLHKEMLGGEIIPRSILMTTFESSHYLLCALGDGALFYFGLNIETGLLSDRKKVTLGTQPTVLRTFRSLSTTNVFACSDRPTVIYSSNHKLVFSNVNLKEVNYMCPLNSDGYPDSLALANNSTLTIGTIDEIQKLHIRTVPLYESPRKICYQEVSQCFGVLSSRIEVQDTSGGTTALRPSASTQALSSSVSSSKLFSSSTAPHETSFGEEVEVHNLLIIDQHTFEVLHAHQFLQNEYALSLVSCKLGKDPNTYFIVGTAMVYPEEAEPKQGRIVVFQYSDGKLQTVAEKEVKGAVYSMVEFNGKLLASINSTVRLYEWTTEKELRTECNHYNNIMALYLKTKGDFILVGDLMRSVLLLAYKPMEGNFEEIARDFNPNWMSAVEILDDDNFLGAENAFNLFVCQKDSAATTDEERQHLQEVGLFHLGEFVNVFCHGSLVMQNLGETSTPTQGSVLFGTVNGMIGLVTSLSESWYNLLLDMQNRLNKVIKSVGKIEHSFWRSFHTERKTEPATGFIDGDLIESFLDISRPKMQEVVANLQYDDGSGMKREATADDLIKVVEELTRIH
Protocol: Compounds of this invention were tested for degradation of mutant BRAF V600E using the HiBiT assay, a luminescence-based assay for quantification of cellular protein levels using the Nano-Glo® HiBiT Lytic Detection System (Catalog No. N3050, Promega, Madison, WI USA). This assay utilizes the HiBiT tag on a protein of interest, which creates a luminescent signal in the presence of a complementing peptide and its substrate, the quantification of which is proportional to the amount of HiBiT-tagged protein in the cell.
The cell line A375, which is homozygous for the BRAF V600E mutation, was purchased from ATCC (Catalog No. CRL-1619, Manassas, VA, USA). A375 cells were engineered to express HiBiT tagged BRAF V600E by CRISPR knock-in of the HiBiT tag to the endogenous BRAF V600E locus, followed by selection of a clonal population containing the appropriate knock-in (referred to here as cell line A375.10). A375.10 cells were maintained at 37° C. in an atmosphere of 5% CO2 in Dulbecco's modified Eagle Medium (DMEM) with high glucose (Catalog No. 11965092), supplemented with 10% fetal bovine serum (FBS; Catalog No. 10437036), and 10 mM HEPES (Catalog No. 15630130), all obtained from Thermofisher Scientific (Waltham, MA, USA). Cell culture flasks and 384-well microplates were acquired from VWR (Radnor, PA, USA).
Test compounds were prepared by dissolving neat compounds in DMSO (Catalog No. D8418, Sigma-Aldrich, Inc., St. Louis, MO, USA) to generate 10 mM stock solutions, which were serially diluted (half log) in DMSO to generate an 11-point dose series (1000× final treatment concentration) in a 384-Well Low Dead Volume Microplate (Catalog No. LP-0200, Labcyte, San Jose, CA, USA). Using the Echo 550 Acoustic Liquid Handler (Labcyte), 30 nL of serially diluted compound solutions were dispensed in duplicate to 384-well TC-treated microplates (Catalog No. 3571, Corning, Glendale, CA, USA) and 30 nL of DMSO was dispensed to control wells. A375.10 cells resuspended in growth media without phenol red (Catalog No. 21063-029, Thermofisher Scientific) were then added to 384-well plates containing the 11-point dose series of compounds in duplicate (maximum 10 μM concentration for final treatment) at a density of 12,000 cells/well in 30 μl. Plates were then spun briefly, and cells were incubated with compound at 37° C. for 2 hours, 6 hours, or 24 hours.
Following the appropriate treatment time, Nano-Glo® HiBiT Lytic Assay reagents were added to the cells per the manufacturer's instructions by adding 30 μl of reagent per well, and the luminescence signal was acquired by plate reader. Cells treated with DMSO only (no test compound treatment) were used as the negative control (N). Media only (no cells added) with Nano-Glo reagent addition was used as the background or positive control (P). The percent response of compound treated samples were calculated by subtracting out the background signal (P) and normalizing to the DMSO control (N) as follows.
% Response=100×(Treated Signal−Average (P))/(Average (N)−Average (P)).
Data were analyzed with a 4-parameter logistic fit to generate sigmoidal dose-response curves. The DC50 is the concentration of compound at which 50% of the cellular BRAF V600E has been degraded. The Emax, or maximum effect of each compound, represents the amount of residual protein remaining in the cell following compound treatment. The IP, or inflection point of the dose-response curve, is the concentration of compound at which 50% of the observed degradation response is achieved.
The experiment was conducted at least once for each compound. If the experiment was conducted multiple times, the data shown in the table is the average of the two or more experiments.

A375-NRAS^Q61K cells = assay: CTGlo Cell Viability Assay, A375-NRAS^Q61K (A375.11) cells, 96 hours; format: cell-based, human; conditions: A375.11 (A375-NRAS^Q61K) cells; for CTGlo A375.11 96 hours Emax / Emax: lowest % viability achieved; for Emax: Homo sapiens, 96 h
Protocol: Compounds of this invention were tested for their effect on the viability of A375-NRAS^Q61K cells by quantification of ATP using the CellTiter-Glo® 2.0 Cell Viability Assay (Catalog No. G9243, Promega, Madison, WI, USA). This assay produces a luminescent signal in the presence of ATP, which is indicative of metabolically active cells, making the luminescence readout proportional to the number of viable cells.
A375-NRAS^Q61K cells (harboring BRAF homozygous V600E mutation and NRAS homozygous Q61K mutation) were purchased from ATCC (Catalog No. CRL-1619IG-2, Manassas, VA, USA). A375-NRAS^Q61K cells (also referred to here as A375.11) were maintained at 37° C. in an atmosphere of 5% CO2 in Dulbecco's modified Eagle Medium (DMEM) with high glucose (Catalog No. 11965092), supplemented with 10% fetal bovine serum (FBS; Catalog No. 10437036), and 10 mM HEPES (Catalog No. 15630130), all obtained from Thermofisher Scientific (Waltham, MA, USA). Cell culture flasks and 384-well microplates were acquired from VWR (Radnor, PA, USA).
Test compounds were prepared by dissolving neat compounds in DMSO (Catalog No. D8418, Sigma-Aldrich, Inc., St. Louis, MO, USA) to generate 10 mM stock solutions, which were serially diluted (half log) in DMSO to generate an 11-point dose series (1000× final treatment concentration) in a 384-Well Low Dead Volume Microplate (Catalog No. LP-0200, Labcyte, San Jose, CA, USA). Using the Echo 550 Acoustic Liquid Handler (Labcyte), 50 nL of serially diluted compound solutions were dispensed in duplicate to 384-well TC-treated microplates (Catalog No. 3571, Corning, Glendale, CA, USA) and 50 nL of DMSO was dispensed to control wells. A375-NRAS^Q61K cells were resuspended in growth media and added to 384-well plates containing a […] of compounds in duplicate (maximum 10 μM concentration for final treatment) at a density of 250 cells/well in 50 μl. Cells were also plated to a 384-well plate with no compound treatment, to which CellTiter-Glo® reagent was added and luminescence was read right after plating to act as a baseline signal at time of plating (To). Plates treated with compound were then spun briefly, and cells were incubated with compound at 37° C. for 96 hours.
After 96 hours compound treatment, CellTiter-Glo® reagent was added to the cells at 25 μl per well and luminescence was read out on the PHERAstar plate reader (BMG Labtech, Ortenberg, Germany). Cells treated with DMSO only (no test compound treatment) were used as the negative control (N). DMSO treated cells with no CellTiter-Glo® reagent added were used as the background or positive control (P). Viability was determined by subtracting out the average background signal (P) and normalized to the average untreated signal (N) set at 100%.
Data were analyzed with a 4-parameter logistic fit to generate sigmoidal dose-response curves. The half-maximal inhibition of cell growth (GI50) is the concentration at which the fitted curve crosses 50%. The Emax, or maximum effect of each compound, represents the lowest % viability achieved following compound treatment.

[1] = 2 hours, inflection point, read-out: HiBiT-Degradation A375.10 BRAF 2 hours IP
[2] = 2 hours, read-out: HiBiT-Degradation A375.10 BRAF 2 hours DC50
[3] = 2 hours, residual protein remaining
[4] = 6 hours, inflection point, read-out: HiBiT-Degradation A375.10 BRAF 6 hours IP
[5] = 6 hours, read-out: HiBiT-Degradation A375.10 BRAF 6 hours DC50
[6] = HiBiT, 24 hours, read-out: HiBiT-Degradation A375.10 BRAF 24 hours DC50
[7] = HiBiT, 24 hours, read-out: HiBiT-Degradation A375.10 BRAF 24 hours IP
[8] = 6 hours, residual protein remaining, read-out: HiBiT-Degradation A375.10 BRAF 6 hours Emax
[9] = HiBiT, 24 hours, read-out: HiBiT-Degradation A375.10 BRAF 24 hours Emax
[10] = 2 hours, residual protein remaining, read-out: HiBiT-Degradation A375.10 BRAF 2 hours Emax

Row | SMILES | DC50 (BRAF V600E; [1]) [nM] | DC50 (BRAF V600E; [2]) [nM] | HiBiT-Degradation A375.10 BRAF 2 hours Emax (BRAF V600E; [3]) | DC50 (BRAF V600E; [4]) [nM] | DC50 (BRAF V600E; [5]) [nM] | HiBiT-Degradation A375.10 BRAF 6 hours Emax (BRAF V600E; 6 hours, residual protein remaining) | HiBiT-Degradation A375.10 BRAF 24 hours Emax (BRAF V600E; HiBiT, 24 hours) | DC50 (BRAF V600E; [6]) [nM] | DC50 (BRAF V600E; [7]) [nM] | GI50 (A375-NRAS^Q61K cells) [nM] | Emax (BRAF V600E; [8]) [%] | Emax (BRAF V600E; [9]) [%] | Emax (BRAF V600E; [10]) [%] | CTGlo A375.11 96 hours Emax (A375-NRAS^Q61K cells) | Emax (A375-NRAS^Q61K cells) [%]
1 | CCN(C)S(=O)(=O)Nc1ccc(F)c(Oc2ccc3ncn(C4CCC5(CC4)CCN(C4CCC(c6ccc(NC7CCC(=O)NC7=O)cc6F)CC4)CC5)c(=O)c3c2)c1C#N (single isomer, unassigned) [Compound 10, 9-[6-[2-cyano-3-[[ethyl(methyl)sulfamoyl]amino]-6-fluoro-phenoxy]-4-oxo-quinazolin-3-yl]-3-[4-[4-[(2,6-dioxo-3-piperidyl)amino]-2-fluoro-phenyl]cyclohexyl]-3-azaspiro[5.5]undecane] | < 1000 | > 10000 | – | – | – | – | – | – | – | 1000 to 10000 | – | – | 50 to 90 | *** (<=50%) | –
2 | CCN(C)S(=O)(=O)Nc1ccc(F)c(Oc2ccc3ncn(C4CCC5(CC4)CCN(C4CCC(c6ccc(NC7CCC(=O)NC7=O)cc6F)CC4)CC5)c(=O)c3c2)c1C#N (single isomer, unassigned) [Compound 11, 9-[6-[2-cyano-3-[[ethyl(methyl)sulfamoyl]amino]-6-fluoro-phenoxy]-4-oxo-quinazolin-3-yl]-3-[4-[4-[(2,6-dioxo-3-piperidyl)amino]-2-fluoro-phenyl]cyclohexyl]-3-azaspiro[5.5]undecane] | < 1000 | < 1000 | *** (<=50%) | – | – | – | – | – | – | > 10000 | – | – | – | – | 50 to 90
3 | CCN(C)S(=O)(=O)Nc1ccc(F)c(Oc2ccc3ncn(C4CCC5(CC4)CCN(C4CCC(c6cc7c(cc6F)c(N6CCC(=O)NC6=O)nn7C)CC4)CC5)c(=O)c3c2)c1C#N (single isomer, unassigned) [Compound 12] | < 1000 | < 1000 | – | – | – | – | – | – | – | < 1000 | – | – | < 50 | – | < 50

Now from value to compound, other results behind:

Row | DC50 (BRAF V600E; [1]) [nM] | DC50 (BRAF V600E; [2]) [nM] | HiBiT-Degradation A375.10 BRAF 2 hours Emax (BRAF V600E; [3]) | DC50 (BRAF V600E; [4]) [nM] | DC50 (BRAF V600E; [5]) [nM] | HiBiT-Degradation A375.10 BRAF 6 hours Emax (BRAF V600E; 6 hours, residual protein remaining) | HiBiT-Degradation A375.10 BRAF 24 hours Emax (BRAF V600E; HiBiT, 24 hours) | DC50 (BRAF V600E; [6]) [nM] | DC50 (BRAF V600E; [7]) [nM] | GI50 (A375-NRAS^Q61K cells) [nM] | Emax (BRAF V600E; [8]) [%] | Emax (BRAF V600E; [9]) [%] | Emax (BRAF V600E; [10]) [%] | SMILES | CTGlo A375.11 96 hours Emax (A375-NRAS^Q61K cells) | Emax (A375-NRAS^Q61K cells) [%]
4 | < 1000 | < 1000 | *** (<=50%) | < 1000 | < 1000 | *** (<=50%) | *** (<=50%) | < 1000 | < 1000 | < 1000 | – | – | – | CCN(C)S(=O)(=O)Nc1ccc(F)c(Oc2ccc3ncn(C4CC5(CCN(C6CCC(c7ccc(NC8CCC(=O)NC8=O)cc7F)CC6)CC5)C4)c(=O)c3c2)c1C#N (single isomer, unassigned) [Compound 7, 6-[2-cyano-3-[[ethyl(methyl)sulfamoyl]amino]-6-fluoro-phenoxy]-3-[7-[4-[4-[(2,6-dioxo-3-piperidyl)amino]-2-fluoro-phenyl]cyclohexyl]-7-azaspiro[3.5]nonan-2-yl]-4-oxo-quinazoline] | *** (<=50%) | –
5 | < 1000 | < 1000 | *** (<=50%) | < 1000 | < 1000 | – | – | < 1000 | < 1000 | < 1000 | < 50 | < 50 | – | CCN(C)S(=O)(=O)Nc1ccc(F)c(Oc2ccc3ncn(C4CC5(CCN(C6CCC(c7cc8c(cc7F)c(N7CCC(=O)NC7=O)nn8C)CC6)CC5)C4)c(=O)c3c2)c1C#N (single isomer, unassigned) [Compound 9, 6-[2-cyano-3-[[ethyl(methyl)sulfamoyl]amino]-6-fluoro-phenoxy]-3-[7-[4-[3-(2,4-dioxohexahydropyrimidin-1-yl)-5-fluoro-1-methyl-indazol-6-yl]cyclohexyl]-7-azaspiro[3.5]nonan-2-yl]-4-oxo-quinazoline] | *** (<=50%) | –
6 | – | – | – | < 1000 | < 1000 | – | – | < 1000 | < 1000 | – | < 50 | < 50 | – | CCN(C)S(=O)(=O)Nc1ccc(F)c(Nc2ccc3ncn([C@H]4COC5(CCN(C6CCC(c7ccc(NC8CCC(=O)NC8=O)cc7F)CC6)CC5)C4)c(=O)c3c2F)c1C#N (single isomer, unassigned) [Compound 98] | – | –
